Measurements from patent US7638554B2, “Flavanoids as chemotherapeutic, chemopreventive, and antiangiogenic agents” (SRI International, priority 2002, dated 2009).
Like-named read-outs stand apart in the source and are kept apart here.

What was measured:
[1] = test system: MCF-7 (ER+) breast cancer cell line; test: Growth inhibition assay, MTT, MCF-7 breast cancer cells; assay type: cell-based, human; conditions: MTT assay, eight days, average of at least two experiments, read-out: GROWTH INHIBITION (IC50) MCF-7 (ER+)
Description: (§1) Compounds of the invention were tested for their ability to inhibit growth in two breast cancer cell lines, MCF-7 (ER+) and MDA-MB-231 (ER−).
(§2) The growth inhibition assays were conducted using routine methods. Briefly, the cells were seeded in 24-well plates at a density of 2000 cells per well in 200 μL of […] growth medium. To each well was added 10 μL of DMSO containing the dissolved test compound; final DMSO concentration in each well was not more than 0.5%. Each test compound was assayed at concentrations of 0.4, 2, 10, and 50 μM. The plates were incubated for eight days, with the media and test solutions replaced every third day. On Day 8, the viable cells were measured by the MTT assay, as described in Mosmann et al. (1983), “Rapid Colorimetric Assay for Cellular Growth and Survival: Application to Proliferation and Cytotoxicity,” J. Immunol. Method. 65:55-63. The optical density at 575 nm of each test well was measured and compared to that for control wells, and the data used to calculate the percentage of growth inhibition at different concentrations. The IC50 value (the concentration of growth inhibitor that results in 50% growth inhibition of the cells in culture relative to control cells not exposed to any growth inhibitor) was determined by plotting dose-response curves.
(§3) The calculated IC50 values are set forth in Table 1, with the results representing the average of at least two experiments conducted for each compound at each of the four concentrations.

[2] = test system: MDA-MB-231 (ER−) breast cancer cell line; test: Growth inhibition assay, MTT, MDA-MB-231 breast cancer cells; assay type: cell-based, human; conditions: eight days, average of at least two experiments
Description: as §1, §2, §3

[3] = test system: chick chorioallantoic membrane (CAM) blood vessels; test: Chick chorioallantoic membrane (CAM) assay for antiangiogenic activity; assay type: in vivo; conditions: 11.1 μg/CAM, once daily for 12-14 days
Description: The CAM assay, which is widely applied to evaluate in vivo antiangiogenic activity, was utilized with SR 13179.
The methods used were those of Folkman (Auerbach et al. (1974) Dev. Biol. 41:391-394), with some modifications. The test compound was dissolved in saline and methylcellulose, and the embryos dosed once daily for 12-14 days. Blood vessel density of each embryo was measured as the quantitative endpoint. The known antiangiogenic compound medroxyprogesterone acetate (MPA) was used as a positive control.

[4] = test system: prostate cancer cell line LNCaP; test: Growth inhibition, sulforhodamine-based protein determination, LNCaP; assay type: cell-based; conditions: Homo sapiens, Table 5, read-out: Growth Inhibition (IC50), LNCaP cells
Description: The novel compound SR 13179 was assayed for its ability to inhibit growth in several cancer cell lines. The cell lines studied included breast cancer cell line MCF-7 (ER+); prostate cancer cell lines LNCaP, PC3, and DU145; lung cancer cell line A427; ovarian cancer cell lines IGROV1, OVCAR-3, OVCAR-4, OVCAR-5, OVCAR-8, and SK-OV-3; and colon cancer cell lines COLO 205, HCC-2998, HCT-116, HCT-15, HT29, KM12, AND SW-620.
The growth assays for the breast cancer cell lines were conducted according to the method of Example 16. For the other cell lines, each assay was conducted with continuous exposure to the test compound at four log concentrations for six days, using a sulforhodamine-based protein determination to measure growth inhibition.
The procedure of Example 20 was used to evaluate the growth inhibitory effect of various compounds of the invention on LNCaP cells.

[5] = Homo sapiens, MDA-MB-231, 192 h

| IC50 ([1]; Homo sapiens, MCF7, 192 h) | IC50 [2, 5] | Molecule | other results |
| --- | --- | --- | --- |
| > 50 µM | 39 µM | COc1cc(/C=C/C(=O)c2ccc3ccccc3c2O)cc(OC)c1OC [SR 13176, 1-(1-Hydroxy-naphthalen-2-yl)-3-(3,4,5-trimethoxyphenyl)-propenone] | – |
| > 50 µM | > 50 µM | O=C1CC(c2cc(OCc3ccccc3)c(OCc3ccccc3)c(OCc3ccccc3)c2)Oc2cc(OCc3ccccc3)cc(OCc3ccccc3)c21 (centres unmarked) [SR 13180, 5,7-BIS-BENZYLOXY-2-(3,4,5-TRIS-BENZYLOXY-PHENYL)-CHROMAN-4-ONE] | – |
| 5.08 µM | 0.562 µM | O=C(/C=C/c1cc(OCc2ccccc2)c(OCc2ccccc2)c(OCc2ccccc2)c1)c1ccc2ccccc2c1O [SR 13185, 1-(1-HYDROXY-NAPHTHALEN-2-YL)-3-(3,4,5-TRIS-BENZYLOXY-PHENYL)-PROPENONE] | – |
| 7.32 µM | 9.84 µM | O=C1CC(c2cc(OCc3ccccc3)c(OCc3ccccc3)c(OCc3ccccc3)c2)Oc2c1ccc1ccccc21 (centres unmarked) [SR 13186, 2-(3,4,5-TRIS-BENZYLOXY-PHENYL)-2,3-DIHYDRO-BENZO[H]CHROMEN-4-ONE] | – |
| > 50 µM | > 50 µM | COc1ccc(C2CC(=O)c3c(OC)cc(OC)cc3O2)cc1 (centres unmarked) [SR 13188, 5,7-DIMETHOXY-2-(4-METHOXY-PHENYL)-CHROMAN-4-ONE] | IC50 [4]: 3.34 µM |
| > 50 µM | > 50 µM | COc1ccc(C2CC(O)c3c(OC)cc(OC)cc3O2)cc1 (centres unmarked) [SR 13189, 5,7-DIMETHOXY-2-(4-METHOXY-PHENYL)-CHROMAN-4-OL] | – |
| 19.9 µM | > 50 µM | OC1CC(c2cc(OCc3ccccc3)c(OCc3ccccc3)c(OCc3ccccc3)c2)Oc2c1ccc1ccccc21 (centres unmarked) [SR 13191, 2-(3,4,5-TRIS-BENZYLOXY-PHENYL)-3,4-DIHYDRO-2H-BENZO[H]CHROMEN-4-OL] | IC50 [4]: 6.58 µM |

The next lines start with the molecule.

| Molecule | IC50 ([1]; Homo sapiens, MCF7, 192 h) | IC50 [2, 5] | other results |
| --- | --- | --- | --- |
| 3-(3,4,5-Trimethoxyphenyl)-2,3-dihydro-benzo[F]chromen-1-one [SR 13182] | – | – | IC50 [1]: > 50 µM; IC50 [2]: > 50 µM |
| CC(=O)O[C@]1(C(C)=O)CC[C@H]2[C@@H]3C[C@H](C)C4=CC(=O)CC[C@]4(C)[C@H]3CC[C@@]21C [MPA, medroxyprogesterone acetate, reference compound] | – | – | Blood vessel density score [3]: 4.5 ± 2.3; Percent inhibition relative to control [3]: 58% |
| COc1cc(C2CC(=O)c3ccc4ccccc4c3O2)cc(OC)c1OC (centres unmarked) [SR 13177, 2-(3,4,5-TRIMETHOXYPHENYL)-2,3-DIHYDRO-BENZO[H]CHROMEN-4-ONE] | 4.65 µM | – | IC50 [4]: 2.52 µM |
| O=C(C=Cc1cc(OCc2ccccc2)c(OCc2ccccc2)c(OCc2ccccc2)c1)c1c(O)cc(OCc2ccccc2)cc1OCc1ccccc1 [SR 13178, 1-(2,4-Bis-benzyloxy-6-hydroxyphenyl)-3-(3,4,5-tris-benzyloxy-phenyl)-propenone] | – | – | IC50 [1]: 53 µM; IC50 [2]: > 100 µM |
| COc1cc(C2CC(=O)c3c(ccc4ccccc34)O2)cc(OC)c1OC (centres unmarked) [SR 13181, 3′,4′,5′-TRIMETHOXY-B-NAPHTHAFLAVAN-4-ONE] | – | – | IC50 [1]: > 100 µM; IC50 [2]: > 100 µM |
| OC1CC(c2cc(OCc3ccccc3)c(OCc3ccccc3)c(OCc3ccccc3)c2)Oc2cc(OCc3ccccc3)cc(OCc3ccccc3)c21 (centres unmarked) [SR 13183, 5,7-BIS-BENZYLOXY-2-(3,4,5-TRIS-BENZYLOXY-PHENYL)-CHROMAN-4-OL] | > 100 µM | 13.6 µM | – |
| COc1cc(C2CC(O)c3c(ccc4ccccc34)O2)cc(OC)c1OC (centres unmarked) [SR 13187, 3-(3,4,5-TRIMETHOXYPHENYL)-2,3-DIHYDRO-1H-BENZO[F]CHROMEN-1-OL] | 6.29 µM | – | IC50 [4]: 17.7 µM |
| COc1cc([C@@H]2CC(O)c3cc4c(cc3O2)CCCC4)cc(OC)c1OC (some centres unmarked) [SR 13817, 5-(4-hydroxy-3,4,6,7,8,9-hexahydro-2H-benzo[g]chromen-2-yl)benzene-1,2,3-trimethoxy] | – | – | IC50 [1]: 0.56 µM; IC50 [2]: 1.51 µM |
